Experimental data as given in patent US11173162B2, “Bicyclic heterocycles as FGFR4 inhibitors” (Incyte Corporation, priority 2015, dated 2021).

Test system: FGFR3 enzyme
Experiment: FGFR Enzymatic Assay (FRET peptide phosphorylation), FGFR3
Type: biochemical
Details: IC50 ratio showing FGFR3 selectivity; Table 2A, pre-incubated for 4 hours
Description: The inhibitor potency of the exemplified compounds was measured in an enzyme assay that measures peptide phosphorylation using FRET measurements to detect product formation. Inhibitors were serially diluted in DMSO and a volume of 0.5 μL was transferred to the wells of a 384-well plate.
GraphPad prism3 was used to analyze the data.

**Q.** With `CCN1C(=O)N(c2c(F)c(OC)cc(OC)c2F)Cc2cnc(-c3ccc(N4CCOCC4)nc3)cc21` [Example 182, 3-(2,6-difluoro-3,5-dimethoxyphenyl)-1-ethyl-7-(6-morpholinopyridin-3-yl)-3,4-dihydropyrido[4,3-d]pyrimidin-2(1H)-one] as the compound, how does the FGFR1/FGFR3 read?
**A.** >5

**Q.** And the FGFR4/FGFR3?
**A.** >5

**Q.** How did the FGFR1/FGFR3 turn out when `COc1cc(OC)c(F)c(N2Cc3cnc(-c4cn(C)nc4C)cc3N(Cc3cnn(C)c3)C2=O)c1F` [Example 72, 3-(2,6-difluoro-3,5-dimethoxyphenyl)-7-(1,3-dimethyl-1H-pyrazol-4-yl)-1-((1-methyl-1H-pyrazol-4-yl)methyl)-3,4-dihydropyrido[4,3-d]pyrimidin-2(1H)-one] was run?
**A.** >5

**Q.** What about the FGFR4/FGFR3 of the same compound?
**A.** >10

**Q.** Which results are given for `COc1cc(OC)c(F)c(N2Cc3cnc(-c4cn(C)nc4C)cc3N(C3CC3)C2=O)c1F` [Example 83, 1-cyclopropyl-3-(2,6-difluoro-3,5-dimethoxyphenyl)-7-(1,3-dimethyl-1H-pyrazol-4-yl)-3,4-dihydropyrido[4,3-d]pyrimidin-2(1H)-one]?
**A.** FGFR1/FGFR3: >5; FGFR4/FGFR3: >5

**Q.** With `COc1cc(OC)c(F)c(N2Cc3cnc(-c4cnn(C5(C#N)CCC5)c4C)cc3C3(CC3)C2=O)c1F` [Example 149, 1-(4-(2′-(2,6-difluoro-3,5-dimethoxyphenyl)-3′-oxo-2′,3′-dihydro-1′H-spiro[cyclopropane-1,4′-[2,7]naphthyridine]-6′-yl)-5-methyl-1H-pyrazol-1-yl)cyclobutanecarbonitrile] as the compound, how does the FGFR1/FGFR3 read?
**A.** >5

**Q.** And the FGFR4/FGFR3?
**A.** >3

**Q.** For `COC(=O)Nc1ccc(N2C(=O)N(c3c(F)c(OC)cc(OC)c3F)Cc3cnc(-c4cn(C)nc4C)cc32)cc1` [Example 123, Methyl 4-(3-(2,6-difluoro-3,5-dimethoxyphenyl)-7-(1,3-dimethyl-1H-pyrazol-4-yl)-2-oxo-3,4-dihydropyrido[4,3-d]pyrimidin-1(2H)-yl)phenylcarbamate], which FGFR1/FGFR3 is on record?
**A.** >5

**Q.** And the FGFR4/FGFR3?
**A.** >3

**Q.** With `CCc1cnc(N2C(=O)N(c3c(F)c(OC)cc(OC)c3F)Cc3cnc(-c4cn(C)nc4C)cc32)cn1` [Example 106, 3-(2,6-difluoro-3,5-dimethoxyphenyl)-7-(1,3-dimethyl-1H-pyrazol-4-yl)-1-(5-ethylpyrazin-2-yl)-3,4-dihydropyrido[4,3-d]pyrimidin-2(1H)-one] as the compound, how does the FGFR1/FGFR3 read?
**A.** >3

**Q.** And the FGFR4/FGFR3?
**A.** >5

**Q.** What does the source list for `COc1cc(OC)c(F)c(N2Cc3cnc(-c4cn(C)nc4C)cc3N(c3ccccc3F)C2=O)c1F` [Example 110, 3-(2,6-difluoro-3,5-dimethoxyphenyl)-7-(1,3-dimethyl-1H-pyrazol-4-yl)-1-(2-fluorophenyl)-3,4-dihydropyrido[4,3-d]pyrimidin-2(1H)-one]?
**A.** FGFR1/FGFR3: >3; FGFR4/FGFR3: >5

**Q.** With `CCCNC(=O)c1ccc(-c2cc3c(cn2)CN(c2c(F)c(OC)cc(OC)c2F)C(=O)N3CC)cn1` [Example 179, 5-(3-(2,6-difluoro-3,5-dimethoxyphenyl)-1-ethyl-2-oxo-1,2,3,4-tetrahydropyrido[4,3-d]pyrimidin-7-yl)-N-propylpicolinamide] as the compound, how does the FGFR1/FGFR3 read?
**A.** >5

**Q.** What about the FGFR4/FGFR3 of the same compound?
**A.** >10

**Q.** Which results are given for `COc1cc(OC)c(F)c(N2Cc3cnc(-c4cn(C)nc4C)cc3N(c3ccc(S(C)(=O)=O)cc3)C2=O)c1F` [Example 98, 3-(2,6-difluoro-3,5-dimethoxyphenyl)-7-(1,3-dimethyl-1H-pyrazol-4-yl)-1-(4-(methylsulfonyl)phenyl)-3,4-dihydropyrido[4,3-d]pyrimidin-2(1H)-one]?
**A.** FGFR1/FGFR3: >5; FGFR4/FGFR3: >10

**Q.** Which FGFR1/FGFR3 does the source give for `COc1cc(OC)c(F)c(N2Cc3cnc(-c4cn(C)nc4C)cc3N(Cc3cc(C)no3)C2=O)c1F` [Example 35, 3-(2,6-difluoro-3,5-dimethoxyphenyl)-7-(1,3-dimethyl-1H-pyrazol-4-yl)-1-((3-methylisoxazol-5-yl)methyl)-3,4-dihydropyrido[4,3-d]pyrimidin-2(1H)-one] here?
**A.** >5

**Q.** And the FGFR4/FGFR3?
**A.** >10

**Q.** With `COc1cc(OC)c(F)c(N2Cc3cnc(-c4cn(C)nc4C)cc3N(c3cnccn3)C2=O)c1F` [Example 70, 3-(2,6-difluoro-3,5-dimethoxyphenyl)-7-(1,3-dimethyl-1H-pyrazol-4-yl)-1-(pyrazin-2-yl)-3,4-dihydropyrido[4,3-d]pyrimidin-2(1H)-one] as the compound, how does the FGFR1/FGFR3 read?
**A.** >5

**Q.** What about the FGFR4/FGFR3 of the same compound?
**A.** >5

**Q.** With `COc1cc(OC)c(F)c(N2Cc3cnc(-c4cn(C)nc4C)cc3N(Cc3ccc(C#N)nc3)C2=O)c1F` [Example 74, 5-((3-(2,6-difluoro-3,5-dimethoxyphenyl)-7-(1,3-dimethyl-1H-pyrazol-4-yl)-2-oxo-3,4-dihydropyrido[4,3-d]pyrimidin-1(2H)-yl)methyl)picolinonitrile] as the compound, how does the FGFR1/FGFR3 read?
**A.** >5

**Q.** And the FGFR4/FGFR3?
**A.** >5

**Q.** What does the source list for `COc1cnc(N2C(=O)N(c3c(F)c(OC)cc(OC)c3F)Cc3cnc(-c4cn(C)nc4C)cc32)cn1` [Example 112, 3-(2,6-difluoro-3,5-dimethoxyphenyl)-7-(1,3-dimethyl-1H-pyrazol-4-yl)-1-(5-methoxypyrazin-2-yl)-3,4-dihydropyrido[4,3-d]pyrimidin-2(1H)-one]?
**A.** FGFR1/FGFR3: >3; FGFR4/FGFR3: >5

**Q.** Which results are given for `CCCn1cc(N2C(=O)N(c3c(F)c(OC)cc(OC)c3F)Cc3cnc(-c4cn(C)nc4C)cc32)cn1` [Example 132, 3-(2,6-difluoro-3,5-dimethoxyphenyl)-7-(1,3-dimethyl-1H-pyrazol-4-yl)-1-(1-propyl-1H-pyrazol-4-yl)-3,4-dihydropyrido[4,3-d]pyrimidin-2(1H)-one]?
**A.** FGFR1/FGFR3: >3; FGFR4/FGFR3: >5

**Q.** What does the source list for `COc1cc(OC)c(F)c(N2Cc3cnc(-c4cn(C)nc4C)cc3N(C3CCN(C(C)=O)CC3)C2=O)c1F` [Example 43, 1-(1-acetylpiperidin-4-yl)-3-(2,6-difluoro-3,5-dimethoxyphenyl)-7-(1,3-dimethyl-1H-pyrazol-4-yl)-3,4-dihydropyrido[4,3-d]pyrimidin-2(1H)-one]?
**A.** FGFR1/FGFR3: >10; FGFR4/FGFR3: >5

**Q.** With `COc1cc(OC)c(F)c(N2Cc3cnc(-c4cn(C)nc4C)cc3N(c3cccc(-c4cnnn4C)c3)C2=O)c1F` [Example 89, 3-(2,6-difluoro-3,5-dimethoxyphenyl)-7-(1,3-dimethyl-1H-pyrazol-4-yl)-1-(3-(1-methyl-1H-1,2,3-triazol-5-yl)phenyl)-3,4-dihydropyrido[4,3-d]pyrimidin-2(1H)-one] as the compound, how does the FGFR1/FGFR3 read?
**A.** >5

**Q.** And the FGFR4/FGFR3?
**A.** >10

**Q.** With `COc1cc(OC)c(F)c(N2Cc3cnc(-c4cn(C)nc4C)cc3C3(CC3)C2=O)c1F` [Example 21, 2′-(2,6-difluoro-3,5-dimethoxyphenyl)-6′-(1,3-dimethyl-1H-pyrazol-4-yl)-1′,2′-dihydro-3′H-spiro[cyclopropane-1,4′-[2,7]naphthyridin]-3′-one] as the compound, how does the FGFR1/FGFR3 read?
**A.** >5

**Q.** What does the source list for `CCN1C(=O)N(c2c(F)c(OC)cc(OC)c2F)Cc2cnc(-c3ccc(C4(C#N)CCC4)nc3)cc21` [Example 27, 1-(5-(3-(2,6-difluoro-3,5-dimethoxyphenyl)-1-ethyl-2-oxo-1,2,3,4-tetrahydropyrido[4,3-d]pyrimidin-7-yl)pyridin-2-yl)cyclobutanecarbonitrile]?
**A.** FGFR1/FGFR3: >10; FGFR4/FGFR3: >10

**Q.** For `CNS(=O)(=O)c1cccc(N2C(=O)N(c3c(F)c(OC)cc(OC)c3F)Cc3cnc(-c4cn(C)nc4C)cc32)c1` [Example 111, 3-(3-(2,6-difluoro-3,5-dimethoxyphenyl)-7-(1,3-dimethyl-1H-pyrazol-4-yl)-2-oxo-3,4-dihydropyrido[4,3-d]pyrimidin-1(2H)-yl)-N-methylbenzenesulfonamide], which FGFR1/FGFR3 is on record?
**A.** >3

**Q.** What about the FGFR4/FGFR3 of the same compound?
**A.** >5

**Q.** `COc1cc(OC)c(F)c(N2Cc3cnc(-c4cn(C5CCN(C)C5)nc4C)cc3C3(CC3)C2=O)c1F` (stereo not drawn) [Example 163, 2′-(2,6-difluoro-3,5-dimethoxyphenyl)-6′-(3-methyl-1-(1-methylpyrrolidin-3-yl)-1H-pyrazol-4-yl)-1′H-spiro[cyclopropane-1,4′-[2,7]naphthyridin]-3′(2′H)-one] was tested. Which FGFR1/FGFR3 did it give?
**A.** >3

**Q.** What about the FGFR4/FGFR3 of the same compound?
**A.** >3

**Q.** For `COc1cc(OC)c(F)c(N2Cc3cnc(-c4cn(C)nc4C)cc3N(C3CCN(S(C)(=O)=O)CC3)C2=O)c1F` [Example 71, 3-(2,6-difluoro-3,5-dimethoxyphenyl)-7-(1,3-dimethyl-1H-pyrazol-4-yl)-1-(1-(methylsulfonyl)piperidin-4-yl)-3,4-dihydropyrido[4,3-d]pyrimidin-2(1H)-one], which FGFR1/FGFR3 is on record?
**A.** >5

**Q.** What about the FGFR4/FGFR3 of the same compound?
**A.** >3

**Q.** For `COc1cc(OC)c(F)c(N2Cc3cnc(-c4cn(CCCN5CCOCC5)nc4C)cc3C3(CC3)C2=O)c1F` [Example 146, 2′-(2,6-difluoro-3,5-dimethoxyphenyl)-6′-(3-methyl-1-(3-morpholinopropyl)-1H-pyrazol-4-yl)-1′H-spiro[cyclopropane-1,4′-[2,7]naphthyridin]-3′(2′H)-one], which FGFR1/FGFR3 is on record?
**A.** >10

**Q.** What about the FGFR4/FGFR3 of the same compound?
**A.** >5

**Q.** With `CCN1C(=O)N(c2c(F)c(OC)cc(OC)c2F)Cc2cnc(-c3ccc(C(N)=O)nc3)cc21` [Example 184, 5-(3-(2,6-difluoro-3,5-dimethoxyphenyl)-1-ethyl-2-oxo-1,2,3,4-tetrahydropyrido[4,3-d]pyrimidin-7-yl)picolinamide] as the compound, how does the FGFR1/FGFR3 read?
**A.** >5

**Q.** And the FGFR4/FGFR3?
**A.** >5

**Q.** How did the FGFR1/FGFR3 turn out when `COc1cc(OC)c(F)c(N2Cc3cnc(-c4cn(C)nc4C)cc3N(c3ccc(F)cc3)C2=O)c1F` [Example 40, 3-(2,6-difluoro-3,5-dimethoxyphenyl)-7-(1,3-dimethyl-1H-pyrazol-4-yl)-1-(4-fluorophenyl)-3,4-dihydropyrido[4,3-d]pyrimidin-2(1H)-one] was run?
**A.** >10

**Q.** And the FGFR4/FGFR3?
**A.** >10

**Q.** Which FGFR1/FGFR3 does the source give for `COc1cc(OC)c(F)c(N2Cc3cnc(-c4ccncc4)cc3C3(CC3)C2=O)c1F` [Example 185, 2′-(2,6-difluoro-3,5-dimethoxyphenyl)-6′-(pyridin-4-yl)-1′H-spiro[cyclopropane-1,4′-[2,7]naphthyridin]-3′(2′H)-one] here?
**A.** >3

**Q.** What about the FGFR4/FGFR3 of the same compound?
**A.** >3

**Q.** Which results are given for `COc1cc(CN2C(=O)N(c3c(F)c(OC)cc(OC)c3F)Cc3cnc(-c4cn(C)nc4C)cc32)ccn1` [Example 58, 3-(2,6-difluoro-3,5-dimethoxyphenyl)-7-(1,3-dimethyl-1H-pyrazol-4-yl)-1-((2-methoxypyridin-4-yl)methyl)-3,4-dihydropyrido[4,3-d]pyrimidin-2(1H)-one]?
**A.** FGFR1/FGFR3: >10; FGFR4/FGFR3: >10
